Data from patent US12404332B2, “Methods for diagnosing and treating cancers” (Research Development Foundation, priority 2020, dated 2025).

Tests used:
[1] = test system: ES2 cells; assay: Tumor-initiating cell (TIC) flow cytometry, ES2 cells; type: cell-based, human
Protocol: (§1) FIGS. 40A-C: CAMB suppresses mTORC1 signals and reduces TIC numbers. FIG. 40A, Western blots for proteins in the mTORC1 pathway. Cells were treated with chlorambucil as indicated concentration for 48 hours. FIG. 40B, Western blot for LC3I/II to assess autophagy in cell lysates treated±chlorambucil at indicated concentrations. FIG. 40C, Percent of ALDH^hi TIC by flow cytometry of ES2 cells cultured±chlorambucil. Percent CD44^+CD24^+ ID8agg TIC and CD44^+CD133^+CD24^+ B16 TIC detected by flow cytometry.
(§2) Flow cytometry: Mice were sacrificed by cervical dislocation after induction of deep isoflurane anesthesia. ID8agg tumors were collected and cells were stained as described (Derup et al., 2020) using LSR II hardware and analyzed by FACS Diva (BD Bioscience) or Flow Jo software (Flow Jo, LLC). Anti-mouse (clone 10F.9G2) and human (clone 29E.2A3) PD-L1 [both PE/Cy7, Cat #124314 (mouse) 329718 (human)] were matched with isotype control. Apoptosis assessment used Annexin V and propidium iodide (Thermo Scientific) per manufacturer instruction.

[2] = test system: B16 cells; assay: Tumor-initiating cell (TIC) flow cytometry, B16 cells; type: cell-based, mouse
Protocol: as §1, §2

[3] = test system: PD-1 and β2M on OVCAR5 (human ovarian) cells; assay: PD-1 and B2M expression on OVCAR5 cells; type: cell-based
Protocol: Tumor and ascites were collected for flow cytometry analyses. Summary graph of CD45-PD-L1 cell percentage and MFI. FIG. 33D, PD-1 and B2M expression on OVCAR5 (human ovarian) cells treated with (+) or without (−) chlorambucil for 48 hours.
as §2

[4] = test system: ID8agg tumors; type: in vivo, mouse
Source text: Mice and in vivo treatments: Wild-type (WT) C57BL/6 mice NSG were purchased from Jackson Labs (Bar Harbor, ME), bred in our animal facility and used at 7-20 weeks old. All mice were given ad libitum water and food and housed under specific pathogen-free conditions. Mice used here were matched for sex and age in each experiment. 1×10^5 control or PD-L1^KOB16 cells were given subcutaneously (SQ, both sexes). 4×10^6 control or PD-L1^lo ID8agg cells in log growth phase were given intraperitoneally (females only). B16 tumor growth was measured with Vernier calipers and volume was calculated as (length×width^2)/2. Intraperitoneal ID8agg tumor growth was determined by IVIS Lumina Imaging System (Perkin Elmer; Waltham, MA) 15 minutes after i.p. injection of 3 mg of PBS-dissolved d-luciferin K+ (Gold Biotechnology; St. Louis, MO) with 30 second exposures, medium binning, and F/stop=1. Identical regions of interest were drawn over each subject's abdomen and average radiance (photons/see/cm2/sr) was quantified with Living Image software version 4.2. Body weight was measured every week for PD-L1^lo ID8agg mice as a surrogate for tumor growth, and tumors were weighed at end-experiment in confirmation. Survival was determined as >1500 mm^3 for SQ tumors and distress or >20% mouse weight gain for PD-L1^lo ID8agg tumors. Intraperitoneal injection of chlorambucil was given at indicated doses (optimized for each tumor and treatment condition in preliminary assessments not shown) for 3 treatment cycles starting 7 days after tumor cell challenge. Each chlorambucil cycle was 5 consecutive days of a single injection followed by two days of rest. αPD-L1 (clone 10F.9G2) or respective isotype control was injected intraperitoneally at 100 μg/mouse every 5 days starting on day 7 after tumor challenge for times indicated.

[5] = test system: ID8agg and B16 cells; assay: Chlorambucil in vitro cell growth, viability, apoptosis and calreticulin; type: cell-based, mouse
Protocol: FIGS. 34A-D: FIG. 34A, Cells cultured in vitro with chlorambucil at indicated concentrations and counts determined on Vi-Cell. p-value, unpaired t-test. VC, vehicle control. FIG. 34B, Annexin V-FITC/PI (AV/PI) dual staining assay. Upper left, necrotic cells). Lower left, live cells. Lower right, early apoptotic cells and upper right, late apoptotic cells. ID8agg (CAMB 5 μM) and B16 (CAMB 10 μM) cells were treated for 48 hours. FIG. 34C, CAMB-treated ID8agg and B16 cells stained with an isotype control or an anti-calreticulin (CRT) antibody followed by immunofluorescence cytometry. FIG. 34D, Tumor cells were treated with the indicated concentrations with CAMB 48 h. Cell viability was detected by CCK-8 assay and relative cell viability ratio were compared between WT cells and PD-L1KO or PD-Lllo cells at different concentration point.
Cell proliferation and viability assays: Cells (0.5-1×10^3) were plated in 96-well plastic culture plates in 100 μL medium and treated with CAMB. Cell viability was determined by a cell counting kit-8 (CCK-8) (Sigma). Absorbance was measured at 450 nm using a BioTek Synergy 2 Multi-Mode Plate Reader. Proliferation was assessed in triplicate in three separate experiments for in vitro all data shown.
as §2

## O=C(O)CCCc1ccc(N(CCCl)CCCl)cc1 [chlorambucil]
[1]
  ALDH^hi TIC population: significantly reduced
[2]
  CD44^+CD24^+ TIC population: significantly reduced
[3]
  PD-1 and β2M on the cell surface: Upregulation
[4]; CAMB dose ineffective as a single agent
  sensitization of ID8agg to αPD-L1: sensitized ID8agg to αPD-L1
[4]; ID8agg challenge, ascites
  tumor PD-L1 in vivo: reduced tumor PD-L1 in ascites
[4]; WT mice, dose and schedule as for ID8agg
  PD-L1^lo ID8agg growth: unable to suppress
[4]; mouse, in vivo
  single agent efficacy at the dose used for the combination: ineffective as a single agent
[4]; severely immunodeficient NSG mice, ID8agg
  treatment of tumors: effectively treated both
[4]; wild type mice, ID8agg
  mouse survival: prolonged mouse survival
  tumor volume: significantly reduced tumor volume
[5]
  cell growth in vitro: inhibited cell growth in vitro with little or no killing
  cell surface calreticulin: significantly increased
  immunogenic cell death (ICD): induced ICD independent of tumor PD-L1 status
  sensitivity of CTRL cells compared with PD-L1^lo or PD-L1^KO cells: more sensitive
[5]; ID8agg or B16 cells
  apoptosis: did not induce apoptosis
